# System: T1, NAGaseA
# T1 construct: whole ORF, 844 residues (2535 bp), pET-28a(+) NdeI/XhoI, His6-tag kept, E. coli BL21(DE3), Ni-NTA purified, ~92 kDa (92,379 Da with His6-tag); cloning primers encode N-terminal MNKPAG and C-terminal SRVVAV
# Assay: pNP release at […] nm, Lineweaver-Burk
# Assay type: biochemical, Chitinibacter sp. GC72
# Settings: 50 mM PBS pH 6.5, 40°C, 10 min, 50-2,500 μM substrate
compound,measurement,value
CC(=O)N[C@H]1[C@H](Oc2ccc([N+](=O)[O-])cc2)O[C@H](CO)[C@@H](O)[C@@H]1O [pNP-GlcNAc],Km,40 µM
